From PMC8286840, “Identifying SARS-CoV-2 antiviral compounds by screening for small molecule inhibitors of Nsp3 papain-like protease” (Biochemical Journal, 2021)
Structures can show the parent of a compound that is named as a salt. Where two headings read alike, the source gives them in different places. *1 amine or outer side, *2 acyl side, *3 side chain or, on linkers, in order; H or OH if unused. Where a SMILES comes first, the peptide text is derived from it. Side-chain parts run from the residue outwards. [ ]: non-standard residue; d: D form. The star is where a group is joined. Ethylenediamine = C(CN[*:2])N[*:1]; Hyp = O=C(O)[C@@H]1C[C@@H](O)CN1; Phg = N[C@H](C(=O)O)c1ccccc1; CO = O=C([*:1])[*:2]; Bn = c1ccc(C*)cc1

Columns and labels:
[1] = target: T1, SARS-CoV-2 PLpro (nsp3 1564–1878) (Severe acute respiratory syndrome coronavirus 2, UniProt P0DTD1); assay: biochemical; parameters: FRET-quenched peptide (Pro3) cleavage by PLpro, 10 min pre-incubation, slope over 20 min, normalised to no-compound control; conditions: high concentration screen, read-out: % of control remaining
[2] = target: T1, SARS-CoV-2 PLpro (nsp3 1564–1878); assay: biochemical; parameters: FRET-quenched peptide (Pro3) cleavage by PLpro, 10 min pre-incubation, slope over 20 min, normalised to no-compound control; conditions: low concentration screen, read-out: % of control remaining

SMILES: Cc1ccccc1-n1c(Cn2cnc3c(N)ncnc32)nc2cccc(C)c2c1=O [IC87114]
- remaining activity at 3.75 µM ([1]; Well no.=2945): 97.6%
- remaining activity at 1.25 µM ([2]; Well no.=2945): 98.3%

SMILES: COc1ccc2c(c1OC)CN1CCc3cc4c(cc3C1C2)OCO4 (stereo not drawn) [Tetrahydroberberine]
- remaining activity at 3.75 µM ([1]; Well no.=6656): 99.7%
- remaining activity at 1.25 µM ([2]; Well no.=6656): 97.9%

SMILES: CC(C)NC[C@H](O)COc1ccc(CCOCC2CC2)cc1 [Levobetaxolol (hydrochloride)]
- remaining activity at 3.75 µM ([1]; Well no.=6429): 90.9%
- remaining activity at 1.25 µM ([2]; Well no.=6429): 91.4%

SMILES: CC(=O)[C@H]1CC[C@H]2[C@@H]3CC=C4C[C@@H](OS(=O)(=O)O)CC[C@]4(C)[C@H]3CC[C@]12C [Pregnenolone sulfate sodium]
- remaining activity at 3.75 µM ([1]; Well no.=1169): 102%
- remaining activity at 1.25 µM ([2]; Well no.=1169): 101%

SMILES: CCCCCC(O)c1cccc(OCc2ccc3ccccc3n2)c1 (stereo not drawn) [REV-5901]
- remaining activity at 3.75 µM ([1]; Well no.=4520): 95.4%
- remaining activity at 1.25 µM ([2]; Well no.=4520): 92.4%

SMILES: C#C[C@]1(OC(C)=O)CC[C@H]2[C@@H]3CCC4=CC(=O)CC[C@@H]4[C@H]3CC[C@@]21C [Norethindrone acetate]
- remaining activity at 3.75 µM ([1]; Well no.=5895): 101%
- remaining activity at 1.25 µM ([2]; Well no.=5895): 99.8%

SMILES: Nc1ccn([C@@H]2O[C@H](CO)[C@@H](O)[C@@H]2O)c(=O)n1 [Cytarabine]
- remaining activity at 3.75 µM ([1]; Well no.=1938): 98.4%
- remaining activity at 3.75 µM ([1]; Well no.=8847): 105%
- remaining activity at 1.25 µM ([2]; Well no.=1938): 99.8%
- remaining activity at 1.25 µM ([2]; Well no.=8847): 108%

SMILES: N[C@@H](CCC(=O)O)C(=O)O [L-Glutamic acid monosodium salt]
- remaining activity at 3.75 µM ([1]; Well no.=8573): 106%
- remaining activity at 1.25 µM ([2]; Well no.=8573): 103%

SMILES: NC(=O)c1ccc(-c2cc(-c3ccc([N+](=O)[O-])cc3)nc(-c3ccco3)c2)cc1 [KJ Pyr 9]
- remaining activity at 3.75 µM ([1]; Well no.=6346): 101%
- remaining activity at 1.25 µM ([2]; Well no.=6346): 99.3%

SMILES: CC1=CC(=O)NS(=O)(=O)O1 [Acesulfame Potassium]
- remaining activity at 3.75 µM ([1]; Well no.=5318): 93.1%
- remaining activity at 1.25 µM ([2]; Well no.=5318): 94.9%

SMILES: O=C(OCCN1CCOCC1)C1(c2ccccc2)CCCCC1 [PRE-084]
- remaining activity at 3.75 µM ([1]; Well no.=1000): 100%
- remaining activity at 1.25 µM ([2]; Well no.=1000): 98.1%

SMILES: Nc1nc(O)c(C2=C3C(=Nc4ccccc43)C(=O)NCC2)[nH]1 [Chk2 Inhibitor]
- remaining activity at 3.75 µM ([1]; Well no.=2389): 103%
- remaining activity at 1.25 µM ([2]; Well no.=2389): 103%

SMILES: O=C1C(O)=C([C@H]2CC[C@H](c3ccc(Cl)cc3)CC2)C(=O)c2ccccc21 [Atovaquone]
- remaining activity at 3.75 µM ([1]; Well no.=1838): 94.9%
- remaining activity at 1.25 µM ([2]; Well no.=1838): 92.3%

SMILES: CN1CCC(=C2c3ccccc3C=Cc3ccccc32)CC1 [Cyproheptadine hydrochloride]
- remaining activity at 3.75 µM ([1]; Well no.=38): 91.5%
- remaining activity at 1.25 µM ([2]; Well no.=38): 93.9%

SMILES: O=c1cc(N2CCOCC2)oc2c(-c3ccccc3)cccc12 [LY 294002]
- remaining activity at 3.75 µM ([1]; Well no.=2465): 102%
- remaining activity at 1.25 µM ([2]; Well no.=2465): 101%

SMILES: CCN(CC)CCCCCCCCOC(=O)c1cc(OC)c(OC)c(OC)c1 [TMB-8 hydrochloride]
- remaining activity at 3.75 µM ([1]; Well no.=101): 104%
- remaining activity at 1.25 µM ([2]; Well no.=101): 104%

SMILES: Cc1cn([C@H]2C[C@H](O)[C@@H](CO)O2)c(=O)[nH]c1=O [Thymidine]
- remaining activity at 3.75 µM ([1]; Well no.=7349): 106%
- remaining activity at 3.75 µM ([1]; Well no.=7770): 97.4%
- remaining activity at 1.25 µM ([2]; Well no.=7349): 104%
- remaining activity at 1.25 µM ([2]; Well no.=7770): 94.3%

SMILES: COc1cc(C(O)C(=O)O)ccc1O (stereo not drawn) [hydroxy(4-hydroxy-3-methoxyphenyl)acetic acid]
- remaining activity at 3.75 µM ([1]; Well no.=5433): 108%
- remaining activity at 1.25 µM ([2]; Well no.=5433): 103%

SMILES: C=CC(=O)Nc1cccc(Oc2nc(Nc3ccc(N4CCN(C)CC4)cc3OC)ncc2Cl)c1 [WZ4002]
- remaining activity at 3.75 µM ([1]; Well no.=4713): 106%
- remaining activity at 1.25 µM ([2]; Well no.=4713): 107%

SMILES: NCCCC[C@@H]1NC(=O)[C@@H](Cc2c[nH]c3ccccc23)NC(=O)[C@H](c2ccccc2)NC(=O)[C@@H]2C[C@@H](OC(=O)NCCN)CN2C(=O)[C@H](Cc2ccccc2)NC(=O)[C@H](Cc2ccc(OCc3ccccc3)cc2)NC1=O [Pasireotide (ditrifluoroacetate)] (cyclo([Hyp]([CO-Ethylenediamine])[Phg][dW]KY(Bn)F))
- remaining activity at 3.75 µM ([1]; Well no.=7988): 101%
- remaining activity at 1.25 µM ([2]; Well no.=7988): 96.1%

SMILES: O=C(O)CCCC[C@@H]1SC[C@@H]2NC(=O)N[C@@H]21 [Biotin (Vitamin B7)]
- remaining activity at 3.75 µM ([1]; Well no.=5359): 95.3%
- remaining activity at 1.25 µM ([2]; Well no.=5359): 98.1%

SMILES: COc1cc(C(=O)OC2CC3CCC(C2)N3C)ccc1O (stereo not drawn) [Fillalbin]
- remaining activity at 3.75 µM ([1]; Well no.=3539): 97.4%
- remaining activity at 1.25 µM ([2]; Well no.=3539): 92.8%

SMILES: NCCNS(=O)(=O)c1cccc2cnccc12 [H-9 dihydrochloride]
- remaining activity at 3.75 µM ([1]; Well no.=340): 100%
- remaining activity at 1.25 µM ([2]; Well no.=340): 96.1%

SMILES: Cc1c(O)cccc1C(=O)N[C@@H](CSc1ccccc1)[C@H](O)CN1C[C@H]2CCCC[C@H]2C[C@H]1C(=O)NC(C)(C)C [Nelfinavir mesylate]
- remaining activity at 3.75 µM ([1]; Well no.=2201): 97.3%
- remaining activity at 3.75 µM ([1]; Well no.=8156): 103%
- remaining activity at 1.25 µM ([2]; Well no.=2201): 95.1%
- remaining activity at 1.25 µM ([2]; Well no.=8156): 102%

SMILES: CCCNC[C@H](O)COc1ccccc1C(=O)CCc1ccccc1 [(S)-(-)-propafenone hydrochloride]
- remaining activity at 3.75 µM ([1]; Well no.=1451): 93.6%
- remaining activity at 1.25 µM ([2]; Well no.=1451): 96.2%

SMILES: CCN[C@H]1C[C@H](C)S(=O)(=O)c2sc(S(N)(=O)=O)cc21 [Dorzolamide.HCl]
- remaining activity at 3.75 µM ([1]; Well no.=1878): 96.1%
- remaining activity at 1.25 µM ([2]; Well no.=1878): 96.7%

SMILES: C=C1C(=O)O[C@@H]2/C=C(\C)CC/C=C(\C)CC[C@@H]12 [Costunolide]
- remaining activity at 3.75 µM ([1]; Well no.=5230): 99.1%
- remaining activity at 3.75 µM ([1]; Well no.=6634): 101%
- remaining activity at 1.25 µM ([2]; Well no.=5230): 101%
- remaining activity at 1.25 µM ([2]; Well no.=6634): 102%

SMILES: CCCCC/C=C\C/C=C\C/C=C\C/C=C\CCCC(=O)O[C@@H](CO)COC(=O)CCCCCCCCCCCCCCCCC [1-Stearoyl-2-arachidonoyl-glycerol]
- remaining activity at 3.75 µM ([1]; Well no.=4482): 96.2%
- remaining activity at 1.25 µM ([2]; Well no.=4482): 95.9%

SMILES: CS(=O)(=O)CCNCc1ccc(-c2ccc3ncnc(Nc4ccc(OCc5cccc(F)c5)c(Cl)c4)c3c2)o1 [Lapatinib]
- remaining activity at 3.75 µM ([1]; Well no.=2983): 92.8%
- remaining activity at 1.25 µM ([2]; Well no.=2983): 94.8%

SMILES: C[C@@]12C[C@@]3(O)O[C@@H](O1)[C@]1(COC(=O)c4ccccc4)[C@H]3C[C@@]12O[C@@H]1O[C@H](COC(=O)c2ccccc2)[C@@H](O)[C@H](O)[C@H]1O [Benzoylpaeoniflorin]
- remaining activity at 3.75 µM ([1]; Well no.=6394): 98.2%
- remaining activity at 1.25 µM ([2]; Well no.=6394): 101%

SMILES: COC(=O)[C@H](c1ccccc1Cl)N1CCC2SC(=O)C=C2C1 (stereo partly drawn) [Clopidogrel thiolactone]
- remaining activity at 3.75 µM ([1]; Well no.=8562): 95.5%
- remaining activity at 1.25 µM ([2]; Well no.=8562): 95.8%

SMILES: OC[C@H]1O[C@@H](n2cnc3c(O)nc(O)nc32)[C@H](O)[C@@H]1O [Xanthosine]
- remaining activity at 3.75 µM ([1]; Well no.=7397): 107%
- remaining activity at 1.25 µM ([2]; Well no.=7397): 106%
